Reference: ChEMBL document CHEMBL1145273, “New cytotoxic bisindole alkaloids with protein tyrosine kinase inhibitory activity from a myxomycete Lycogala epidendrum” (Bioorg Med Chem Lett, 2005)
Values after ≈ are worked out from the molar mass of the structure shown.

Assays:
Jurkat = test: Cytotoxicity against Jurkat cells; type: functional, cell-based; conditions: Homo sapiens
[1] = molecular target: T1, cAMP-dependent protein kinase (PKA) (Homo sapiens) (UniProt P22694+P17612+P22612); test: Inhibition of Protein kinase A mediated [gamma-32P]-ATP incorporation at 10 ug/mL; type: protein assay
[2] = molecular target: T2, Protein kinase C (PKC) (Homo sapiens) (UniProt O94806+P41743+P17252+P05129+Q05655+P05771+Q05513+Q02156+P24723+Q15139+Q04759); test: Inhibition of Protein kinase C mediated […]-ATP incorporation at 0.1 ug/mL; type: protein assay
[3] = molecular target: T1, cAMP-dependent protein kinase (PKA) (Homo sapiens); test: Inhibition of Protein kinase A mediated [gamma-32P]-ATP incorporation at 0.1 ug/mL; type: protein assay
[4] = molecular target: T2, Protein kinase C (PKC) (Homo sapiens); test: Inhibition of Protein kinase C mediated […]-ATP incorporation at 1 ug/mL; type: protein assay
[5] = molecular target: T1, cAMP-dependent protein kinase (PKA) (Homo sapiens); test: Inhibition of Protein kinase A mediated [gamma-32P]-ATP incorporation at 1 ug/mL; type: protein assay
[6] = molecular target: T2, Protein kinase C (PKC) (Homo sapiens); test: Inhibition of Protein kinase C mediated […]-ATP incorporation at 10 ug/mL; type: protein assay
[7] = Cytotoxicity against KB/VJ300 cells; type: functional, cell-based; conditions: Homo sapiens
[8] = molecular target: Proto-oncogene tyrosine-protein kinase Src (Homo sapiens) (UniProt P12931); test: Inhibition of protein tyrosine kinase mediated [gamma-32P]-ATP incorporation at 0.1 ug/mL in src-transformed NIH3T3
Chain of Proto-oncogene tyrosine-protein kinase Src (Homo sapiens) (P12931 2-536 limits assumed): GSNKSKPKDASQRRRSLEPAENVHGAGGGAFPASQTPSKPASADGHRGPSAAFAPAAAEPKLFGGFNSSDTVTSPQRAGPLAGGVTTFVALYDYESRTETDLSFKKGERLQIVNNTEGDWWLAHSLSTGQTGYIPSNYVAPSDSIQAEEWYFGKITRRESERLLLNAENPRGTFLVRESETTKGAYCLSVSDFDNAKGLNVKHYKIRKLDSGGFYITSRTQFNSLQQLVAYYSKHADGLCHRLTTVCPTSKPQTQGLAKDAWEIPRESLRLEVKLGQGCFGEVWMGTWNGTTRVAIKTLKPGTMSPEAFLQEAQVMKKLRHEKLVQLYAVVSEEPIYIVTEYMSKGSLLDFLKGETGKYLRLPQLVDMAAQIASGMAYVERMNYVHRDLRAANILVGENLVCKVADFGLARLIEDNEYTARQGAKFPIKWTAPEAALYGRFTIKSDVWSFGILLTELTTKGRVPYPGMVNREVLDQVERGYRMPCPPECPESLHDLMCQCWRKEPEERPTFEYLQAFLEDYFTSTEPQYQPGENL

[9] = molecular target: T3, Eukaryotic elongation factor 2 kinase (Homo sapiens) (UniProt O00418); test: Inhibition of eukaryotic elongation factor-2 kinase mediated [gamma-32P]-ATP incorporation at 0.1 ug/mL
T3 sequence (whole entry): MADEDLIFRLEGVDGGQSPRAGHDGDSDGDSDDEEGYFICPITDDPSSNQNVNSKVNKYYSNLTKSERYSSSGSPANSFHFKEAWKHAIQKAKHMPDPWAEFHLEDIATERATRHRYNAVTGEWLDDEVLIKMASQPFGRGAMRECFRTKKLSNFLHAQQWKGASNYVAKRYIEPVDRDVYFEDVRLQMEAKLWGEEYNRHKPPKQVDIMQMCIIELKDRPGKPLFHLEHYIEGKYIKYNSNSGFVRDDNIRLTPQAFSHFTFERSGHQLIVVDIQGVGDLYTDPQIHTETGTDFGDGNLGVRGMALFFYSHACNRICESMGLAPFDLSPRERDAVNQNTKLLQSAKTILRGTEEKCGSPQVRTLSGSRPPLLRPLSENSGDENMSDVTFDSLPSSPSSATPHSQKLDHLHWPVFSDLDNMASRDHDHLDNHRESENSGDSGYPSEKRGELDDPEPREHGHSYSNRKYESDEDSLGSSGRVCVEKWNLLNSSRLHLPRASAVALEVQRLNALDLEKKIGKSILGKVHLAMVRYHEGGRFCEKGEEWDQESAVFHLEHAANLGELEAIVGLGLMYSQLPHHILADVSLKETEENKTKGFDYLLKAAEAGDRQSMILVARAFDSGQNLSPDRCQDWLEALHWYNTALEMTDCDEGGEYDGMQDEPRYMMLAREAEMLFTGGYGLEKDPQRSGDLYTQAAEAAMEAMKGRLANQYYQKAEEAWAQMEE

[10] = molecular target: Proto-oncogene tyrosine-protein kinase Src (Homo sapiens) (UniProt P12931); test: Inhibition of protein tyrosine kinase mediated [gamma-32P]-ATP incorporation at 1 ug/mL in src-transformed NIH3T3
[11] = molecular target: Proto-oncogene tyrosine-protein kinase Src (Homo sapiens) (UniProt P12931); test: Inhibition of protein tyrosine kinase mediated [gamma-32P]-ATP incorporation at 10 ug/mL in src-transformed NIH3T3
[12] = molecular target: T3, Eukaryotic elongation factor 2 kinase (Homo sapiens); test: Inhibition of eukaryotic elongation factor-2 kinase mediated [gamma-32P]-ATP incorporation at 10 ug/mL
[13] = molecular target: T3, Eukaryotic elongation factor 2 kinase (Homo sapiens); test: Inhibition of eukaryotic elongation factor-2 kinase mediated [gamma-32P]-ATP incorporation at 1 ug/mL
[14] = molecular target: Vascular endothelial growth factor receptor 1 (Homo sapiens) (UniProt P17948); test: Inhibition of Vascular endothelial growth factor receptor 1 mediated [gamma-32P]-ATP incorporation at 1 ug/mL
Chain of Vascular endothelial growth factor receptor 1 (Homo sapiens) (P17948 whole entry): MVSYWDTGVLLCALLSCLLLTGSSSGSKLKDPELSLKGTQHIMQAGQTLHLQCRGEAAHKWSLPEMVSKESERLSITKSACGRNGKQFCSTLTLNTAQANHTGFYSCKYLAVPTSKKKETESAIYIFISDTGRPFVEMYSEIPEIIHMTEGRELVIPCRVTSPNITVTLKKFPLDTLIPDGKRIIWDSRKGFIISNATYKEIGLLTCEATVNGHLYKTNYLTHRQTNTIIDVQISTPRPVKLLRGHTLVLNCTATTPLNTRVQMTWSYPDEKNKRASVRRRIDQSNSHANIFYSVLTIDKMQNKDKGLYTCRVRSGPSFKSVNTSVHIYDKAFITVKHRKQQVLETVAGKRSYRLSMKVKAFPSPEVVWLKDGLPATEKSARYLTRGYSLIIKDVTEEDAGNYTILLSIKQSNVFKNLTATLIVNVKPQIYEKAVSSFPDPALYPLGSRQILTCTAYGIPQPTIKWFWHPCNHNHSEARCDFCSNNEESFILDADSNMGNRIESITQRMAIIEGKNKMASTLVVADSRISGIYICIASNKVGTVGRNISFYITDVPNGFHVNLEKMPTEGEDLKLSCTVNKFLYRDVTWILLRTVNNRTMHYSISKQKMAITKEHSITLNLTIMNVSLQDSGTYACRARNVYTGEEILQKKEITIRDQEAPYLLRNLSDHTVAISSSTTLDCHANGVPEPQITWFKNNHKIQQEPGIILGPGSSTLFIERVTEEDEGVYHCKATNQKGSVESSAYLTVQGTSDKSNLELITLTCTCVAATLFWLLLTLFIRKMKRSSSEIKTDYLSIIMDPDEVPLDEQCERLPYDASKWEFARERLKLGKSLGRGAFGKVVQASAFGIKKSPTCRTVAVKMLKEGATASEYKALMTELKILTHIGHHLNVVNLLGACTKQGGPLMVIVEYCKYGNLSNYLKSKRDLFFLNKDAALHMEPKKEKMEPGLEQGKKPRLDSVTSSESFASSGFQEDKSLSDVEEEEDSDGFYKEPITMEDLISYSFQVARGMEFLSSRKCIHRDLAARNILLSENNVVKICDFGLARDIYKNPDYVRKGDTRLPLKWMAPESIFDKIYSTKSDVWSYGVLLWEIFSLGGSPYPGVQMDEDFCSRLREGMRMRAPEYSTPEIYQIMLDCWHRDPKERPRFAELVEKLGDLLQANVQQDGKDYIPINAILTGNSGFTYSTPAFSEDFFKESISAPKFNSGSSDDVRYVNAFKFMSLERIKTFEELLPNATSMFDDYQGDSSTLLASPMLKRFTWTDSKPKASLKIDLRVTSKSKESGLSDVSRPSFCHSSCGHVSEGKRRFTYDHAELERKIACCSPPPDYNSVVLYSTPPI

[15] = molecular target: Vascular endothelial growth factor receptor 1 (Homo sapiens) (UniProt P17948); test: Inhibition of Vascular endothelial growth factor receptor 1 mediated [gamma-32P]-ATP incorporation at 10 ug/mL
HeLa = test: Cytotoxicity against HeLa cells; type: functional, cell-based; conditions: Homo sapiens
[16] = molecular target: Vascular endothelial growth factor receptor 1 (Homo sapiens) (UniProt P17948); test: Inhibition of Vascular endothelial growth factor receptor 1 mediated [gamma-32P]-ATP incorporation at 0.1 ug/mL
[17] = molecular target: T3, Eukaryotic elongation factor 2 kinase (Homo sapiens); test: Inhibition of eukaryotic elongation factor-2 kinase mediated [gamma-32P]-ATP incorporation at 10 ug/mL; Range is 50-80
[18] = molecular target: Proto-oncogene tyrosine-protein kinase Src (Homo sapiens) (UniProt P12931); test: Inhibition of protein tyrosine kinase mediated [gamma-32P]-ATP incorporation at 10 ug/mL in src-transformed NIH3T3; range = 50-80%
[19] = molecular target: T2, Protein kinase C (PKC) (Homo sapiens); test: Inhibition of Protein kinase C mediated […]-ATP incorporation at 10 ug/mL; Range is 50 to 80%; type: protein assay

Compound	IC50 (Jurkat)	inhibition [1]	inhibition [2]	inhibition [3]	inhibition [4]	inhibition [5]	inhibition [6]	IC50 [7]	inhibition [8]	inhibition [9]	inhibition [10]	inhibition [11]	inhibition [12]	inhibition [13]	inhibition [14]	inhibition [15]	IC50 (HeLa)	inhibition [16]	further results
COC(=O)c1[nH]c(C(=O)OC)c(-c2c[nH]c3ccccc23)c1-c1c[nH]c2ccccc12 [LYCOGARUBIN C]	15.3 µg/mL (≈ 37 µM)	< 50%	< 50%	< 50%	< 50%	< 50%	< 50%	> 25 µg/mL	< 50%	< 50%	< 50%	< 50%	< 50%	< 50%	< 50%	< 50%			
O=C1NCc2c1c1c3ccc(O)cc3[nH]c1c1[nH]c3ccccc3c21	1.34 µg/mL (≈ 4.09 µM)	80%	< 50%	< 50%	< 50%	< 50%	80%	7.6 µg/mL (≈ 23.2 µM)	< 50%	< 50%	80%	> 80%		< 50%	< 50%	80%	5.4 µg/mL (≈ 16.5 µM)	< 50%	inhibition [17]: 80%
O=C1NC(=O)C(c2c[nH]c3ccccc23)=C1c1c[nH]c2ccccc12 [RO-316233]	6.3 µg/mL (≈ 19.2 µM)	80%		< 50%	< 50%	< 50%		> 25 µg/mL	< 50%	< 50%	< 50%	80%	< 50%	< 50%	< 50%	< 50%		< 50%	
O=C1NC(=O)c2c1c1c3ccccc3[nH]c1c1[nH]c3cc(O)c(O)cc3c21	0.84 µg/mL (≈ 2.35 µM)	< 50%	< 50%	< 50%	< 50%	< 50%		25 µg/mL (≈ 70 µM)	< 50%	< 50%	< 50%		< 50%	< 50%	< 50%	< 50%	2.1 µg/mL (≈ 5.88 µM)	< 50%	inhibition [18]: 80%; inhibition [19]: 80%
COC(=O)c1[nH]c(C(=O)OC)c(-c2c[nH]c3ccc(O)cc23)c1-c1c[nH]c2ccccc12 [LYCOGARUBIN B]	18 µg/mL (≈ 41.9 µM)	< 50%	< 50%		< 50%	< 50%	< 50%	> 25 µg/mL	< 50%	< 50%	< 50%	< 50%	< 50%	< 50%	50%	< 50%		< 50%	
